Test system: 616215-338-R-J1-PDC spheroids with HUVEC/MSC, viability
Experiment: Anticancer human tumor 616215-338-R-J1-PDC patient-derived colon adenocarcinoma cell line growth inhibition [PI3K]
Conditions: for IC50: curve of first compound; for viability, T/C: stronger effect = lower value; active means viability on the fitted dose curve at most 10% of control; inactive means the rest
Description: Combinatorial screen of targeted agents with the PI3K inhibitors inavolisib, alpelisib, duvelisib, and copanlisib in multi-cell type tumor spheroids
A high-throughput screen of multi-cell type tumor spheroids was designed to identify active combinations of targeted small molecules and PI3K pathway inhibitors. Complex spheroids include a stromal component modeled by human endothelial cells (HUVEC) and fibroblasts modeled by human mesenchymal stem cells (MSCs). The concentration ranges selected for each drug and investigational agent were based upon clinically achievable concentrations if the clinical Cmax of the agent was known.
Compounds. The drugs and investigational agents: inavolisib (NSC800729), alpelisib (NSC765974), duvelisib (NSC772469), copanlisib (NSC816437), ipatasertib (NSC767898), afuresertib (NSC778305), talazoparib (NSC767125), sapanisertib (NSC764658), selumetinib (NSC741078), tovorafenib (DAY101, NSC766906), vemurafenib (NSC761431), ravoxertinib (NSC781343), sotorasib (NSC818433), MRTX1133 (NSC 836407), abemaciclib (NSC 768073), palbociclib (NSC758247), venetoclax (NSC 766270), SY5609 (NSC837396), enzalutamide (NSC755605), and darolutamide (NSC825331), were obtained from the National Cancer Institute (NCI) Developmental Therapeutics Program Chemical Repository. The FDA-approved anticancer drug set is available from the NCI Developmental Therapeutics Program. […] The stock solutions were prepared in dimethyl sulfoxide (DMSO, Sigma-Aldrich, St. Louis, MO, cat. D2650) at 800-fold the tested concentration and stored at -70 degrees C prior to their use. All drugs and investigational agents were tested over a range starting from a high concentration at or near the clinical Cmax and decreasing in half-log increments. If the clinical Cmax for an agent had not been determined, the highest concentration tested was 10 microM.
Cell Culture. All cells were maintained in an incubator at 37 degrees C and 5% CO2 with 95% humidity. The PDC lines were cultured according to standard operating procedures established by the NCI PDMR (https://pdmr.cancer.gov/sops/default.htm). All PDCs were thawed and cultured in Matrigel-coated flasks prepared with a working solution of 1X Ham's F-12 nutrient mix, without supplementation (Invitrogen, Waltham, MA, cat. 11765054), 100 U/mL penicillin-streptomycin (Invitrogen, cat. 15140122), and 2.5% Matrigel (Corning Inc., Corning, NY, cat. 354248) for the first three passages. The 354836-022-R-J1-PDC, 475296-252-R-J1-PDC, and 997726-040-R-J2-PDC lines were cultured in 6A media, which includes advanced DMEM/F-12 (Thermo Fisher Scientific, cat. 12634028), 10 mM HEPES (Thermo Fisher Scientific, cat. 15630080), 1X GlutaMAX supplement (Thermo Fisher Scientific, cat. 35050061), 0.1 mg/mL primocin (InvivoGen, San Diego, CA, cat. ant-pm-2), 10% defined fetal bovine serum, heat inactivated (HyClone Laboratories Inc., Logan, UT, cat. SH30070.03HI), 50% L-WRN conditioned media (ATCC, cat. CRL-3276), 1.25 mM N-Acetyl-L-cysteine (Sigma-Aldrich, cat. A9165), 10 mM nicotinamide (Sigma-Aldrich, cat. N0636), 1X B-27 supplement (Thermo Fisher Scientific, cat. 17504044), 1X N-2 supplement (Thermo Fisher Scientific, cat. 17502048), and 10 microM Y-27632 dihydrochloride (Tocris Bioscience, Bristol, United Kingdom, cat. 1254). The 624824-186-R-J2-PDC line was cultured in 6C/Colon 1B media, which includes all 6A media components plus 50 ng/mL human EGF recombinant protein (Thermo Fisher Scientific, cat. PHG0311). […]
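Further: spheroids exposed to agents for seven days before the viability read.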

CC1(C)CCC(Nc2ncc(C(F)(F)F)c(-c3c[nH]c4c(P(C)(C)=O)c(C#N)ccc34)n2)CN1 (centres undefined) + CC(Nc1ncnc2nc[nH]c12)c1cc2cccc(Cl)c2c(=O)n1-c1ccccc1
active: viability, T/C (second compound 0.0316 µM, first compound 10 µM) 0.44% | viability, T/C (second compound 0.1 µM, first compound 10 µM) 1.73% | viability, T/C (second compound 0.316 µM, first compound 10 µM) 0.53% | viability, T/C (second compound 1 µM, first compound 10 µM) 1.13% | viability, T/C (second compound 3.16 µM, first compound 10 µM) 0.36% | viability, T/C (second compound 10 µM, first compound 10 µM) 0.61%
31.6 nM: IC50 (second compound 0.0316 µM) | IC50 (second compound 0.1 µM) | IC50 (second compound 0.316 µM)
inactive: viability, T/C (second compound 0.0316 µM, first compound 0.0316 µM) 53.9% | viability, T/C (second compound 0.0316 µM, first compound 0.1 µM) 39% | viability, T/C (second compound 0.0316 µM, first compound 0.316 µM) 44.9% | viability, T/C (second compound 0.0316 µM, first compound 1 µM) 51.6% | viability, T/C (second compound 0.0316 µM, first compound 3.16 µM) 51.8% | viability, T/C (second compound 0.1 µM, first compound 0.0316 µM) 50.6% | viability, T/C (second compound 0.1 µM, first compound 0.1 µM) 37% | viability, T/C (second compound 0.1 µM, first compound 0.316 µM) 44.8% | viability, T/C (second compound 0.1 µM, first compound 1 µM) 45.8% | viability, T/C (second compound 0.1 µM, first compound 3.16 µM) 54% | viability, T/C (second compound 0.316 µM, first compound 0.0316 µM) 44% | viability, T/C (second compound 0.316 µM, first compound 0.1 µM) 37.4% | viability, T/C (second compound 0.316 µM, first compound 0.316 µM) 41.1% | viability, T/C (second compound 0.316 µM, first compound 1 µM) 42.3% | viability, T/C (second compound 0.316 µM, first compound 3.16 µM) 51.3% | viability, T/C (second compound 1 µM, first compound 0.0316 µM) 42.2% | viability, T/C (second compound 1 µM, first compound 0.1 µM) 41.1% | viability, T/C (second compound 1 µM, first compound 0.316 µM) 39.9% | viability, T/C (second compound 1 µM, first compound 1 µM) 70.7% | viability, T/C (second compound 1 µM, first compound 3.16 µM) 46.5% | viability, T/C (second compound 3.16 µM, first compound 0.0316 µM) 44.1% | viability, T/C (second compound 3.16 µM, first compound 0.1 µM) 39.4% | viability, T/C (second compound 3.16 µM, first compound 0.316 µM) 64.1% | viability, T/C (second compound 3.16 µM, first compound 1 µM) 57.4% | viability, T/C (second compound 3.16 µM, first compound 3.16 µM) 41.8% | viability, T/C (second compound 10 µM, first compound 0.0316 µM) 48% | viability, T/C (second compound 10 µM, first compound 0.1 µM) 51.3% | viability, T/C (second compound 10 µM, first compound 0.316 µM) 58.4% | viability, T/C (second compound 10 µM, first compound 1 µM) 48.4% | viability, T/C (second compound 10 µM, first compound 3.16 µM) 20.9%
< 31.6 nM: IC50 (second compound 1 µM)
1090 nM: IC50 (second compound 3.16 µM)
714 nM: IC50 (second compound 10 µM)

Cn1cnc2c(F)c(Nc3ccc(Br)cc3Cl)c(C(=O)NOCCO)cc21 + COc1c(OCCCN2CCOCC2)ccc2c3n(c(=NC(=O)c4cnc(N)nc4)nc12)CCN3
< 9.49 nM: IC50 (second compound 0.316 µM) | IC50 (second compound 1 µM)
810 nM: IC50 (second compound 0.0316 µM)
inactive: viability, T/C (second compound 0.00316 µM, first compound 0.00949 µM) 93.6% | viability, T/C (second compound 0.00316 µM, first compound 0.03 µM) 99.3% | viability, T/C (second compound 0.00316 µM, first compound 0.0949 µM) 91.1% | viability, T/C (second compound 0.00316 µM, first compound 0.3 µM) 83.3% | viability, T/C (second compound 0.00316 µM, first compound 0.949 µM) 72.8% | viability, T/C (second compound 0.00316 µM, first compound 3 µM) 41.9% | viability, T/C (second compound 0.01 µM, first compound 0.00949 µM) 99.3% | viability, T/C (second compound 0.01 µM, first compound 0.03 µM) 95% | viability, T/C (second compound 0.01 µM, first compound 0.0949 µM) 85.4% | viability, T/C (second compound 0.01 µM, first compound 0.3 µM) 86.5% | viability, T/C (second compound 0.01 µM, first compound 0.949 µM) 54.5% | viability, T/C (second compound 0.01 µM, first compound 3 µM) 38.1% | viability, T/C (second compound 0.0316 µM, first compound 0.00949 µM) 99.3% | viability, T/C (second compound 0.0316 µM, first compound 0.03 µM) 94.8% | viability, T/C (second compound 0.0316 µM, first compound 0.0949 µM) 73.7% | viability, T/C (second compound 0.0316 µM, first compound 0.3 µM) 76.3% | viability, T/C (second compound 0.0316 µM, first compound 0.949 µM) 42.5% | viability, T/C (second compound 0.0316 µM, first compound 3 µM) 24.7% | viability, T/C (second compound 0.1 µM, first compound 0.00949 µM) 94% | viability, T/C (second compound 0.1 µM, first compound 0.03 µM) 86.7% | viability, T/C (second compound 0.1 µM, first compound 0.0949 µM) 76.1% | viability, T/C (second compound 0.1 µM, first compound 0.3 µM) 58.6% | viability, T/C (second compound 0.1 µM, first compound 0.949 µM) 30.9% | viability, T/C (second compound 0.1 µM, first compound 3 µM) 13.2% | viability, T/C (second compound 0.316 µM, first compound 0.00949 µM) 37.6% | viability, T/C (second compound 0.316 µM, first compound 0.03 µM) 47.4% | viability, T/C (second compound 0.316 µM, first compound 0.0949 µM) 36.9% | viability, T/C (second compound 0.316 µM, first compound 0.3 µM) 24.9% | viability, T/C (second compound 0.316 µM, first compound 0.949 µM) 11.7% | viability, T/C (second compound 1 µM, first compound 0.00949 µM) 22.2% | viability, T/C (second compound 1 µM, first compound 0.03 µM) 12.8%
2230 nM: IC50 (second compound 0.00316 µM)
1350 nM: IC50 (second compound 0.01 µM)
413 nM: IC50 (second compound 0.1 µM)
active: viability, T/C (second compound 0.316 µM, first compound 3 µM) 1.63% | viability, T/C (second compound 1 µM, first compound 0.0949 µM) 6.6% | viability, T/C (second compound 1 µM, first compound 0.3 µM) 2.1% | viability, T/C (second compound 1 µM, first compound 0.949 µM) 0.32% | viability, T/C (second compound 1 µM, first compound 3 µM) 0.32%

Reference: PubChem BioAssay AID1963978 (Molecular Pharmacology Branch, DTP, NCI, 2024)
